Results taken from the NIST ThermoML archive (doi:10.1021/acs.jced.8b00936).
± gives the expanded uncertainty stated by the source.

Settings: 100 kPa, Liquid, Pycnometric method

Structure (SMILES): CCCCOCCOCCCC [5,8-dioxadodecane]
- mass density (273.15 K): 859.9 ± 4.9 kg/m3
- mass density (283.15 K): 849.3 ± 4.8 kg/m3
